Values after ≈ are worked out from the molar mass of the structure shown.
What was measured:
MRSA-337371 = assay: MIC, two-fold serial dilution method; type: cell-based, Methicillin-resistant Staphylococcus aureus; conditions: Staphylococcus aureus, MRSA, read-out: minimum inhibitory concentration
Description: (§1) The pleuromutilin derivatives 1-4 prepared from Example 9 of the present disclosure were determined for their effect on Methicillin-resistant Staphylococcus aureus, Methicillin-resistant Staphylococcus epidermidis, standard strains of Staphylococcus aureus (S. aureus-29213 and S. aureus-25923), clinical strains 1-48 of S. aureus, Escherichia coli, S. agalactiae and S. dysgalactiae equisimilis (S. dysgalactiae-1, S. dysgalactiae-2, S. dysgalactiae-3) and minimum inhibitory concentration (MIC) using a two-fold serial dilution method, and the results were shown in Table 1, Table 2 and Table 3. The standard strains are commercially available from ATCC, and the clinical strains are preserved by Lanzhou Institute of Husbandry and Pharmaceutical Science of Chinese Academy of Agricultural Sciences (Lanzhou, Gansu, China).

MRSE = assay: MIC, two-fold serial dilution method; type: cell-based, Methicillin-resistant Staphylococcus epidermidis; conditions: Staphylococcus epidermidis, read-out: minimum inhibitory concentration
Description: as §1

S. aureus-25923 = assay: MIC, two-fold serial dilution method; type: cell-based, Staphylococcus aureus; conditions: Staphylococcus aureus, read-out: minimum inhibitory concentration
Description: as §1

S. aureus-29213 = assay: MIC, two-fold serial dilution method; type: cell-based, Staphylococcus aureus; conditions: Staphylococcus aureus, read-out: minimum inhibitory concentration
Description: as §1

E. coli-25922 = assay: MIC, two-fold serial dilution method; type: cell-based, Escherichia coli; conditions: Escherichia coli, read-out: minimum inhibitory concentration
Description: as §1

S. agalactiae-1 = assay: MIC, two-fold serial dilution method; type: cell-based; conditions: Streptococcus agalactiae, read-out: minimum inhibitory concentration
Description: as §1

S. dysgalactiae-1 = assay: MIC, two-fold serial dilution method; type: cell-based, S. dysgalactiae equisimilis; conditions: Streptococcus dysgalactiae, read-out: minimum inhibitory concentration
Description: as §1

S. dysgalactiae-2 = assay: MIC, two-fold serial dilution method; type: cell-based, S. dysgalactiae equisimilis; conditions: Streptococcus dysgalactiae, read-out: minimum inhibitory concentration
Description: as §1

S. dysgalactiae-3 = assay: MIC, two-fold serial dilution method; type: cell-based, S. dysgalactiae equisimilis; conditions: Streptococcus dysgalactiae, read-out: minimum inhibitory concentration
Description: as §1

S. aureus-12 = assay: MIC, clinical strain; type: cell-based, Staphylococcus aureus
Description: as §1

S. aureus-13 = assay: MIC, clinical strain; type: cell-based, Staphylococcus aureus; conditions: in µg/mL
Description: as §1

S. aureus-14 = assay: MIC, clinical strain; type: cell-based, Staphylococcus aureus
Description: as §1

S. aureus-18 = assay: MIC, clinical strain; type: cell-based, Staphylococcus aureus
Description: as §1

S. aureus-19 = assay: MIC, clinical strain; type: cell-based, Staphylococcus aureus
Description: as §1

S. aureus-1 = assay: MIC, clinical strain; type: cell-based, Staphylococcus aureus
Description: as §1

S. aureus-20 = assay: MIC, clinical strain; type: cell-based, Staphylococcus aureus; conditions: in µg/mL
Description: as §1

S. aureus-21 = assay: MIC, clinical strain; type: cell-based, Staphylococcus aureus; conditions: in µg/mL
Description: as §1

S. aureus-22 = assay: MIC, clinical strain; type: cell-based, Staphylococcus aureus
Description: as §1

S. aureus-23 = assay: MIC, clinical strain; type: cell-based, Staphylococcus aureus
Description: as §1

S. aureus-24 = assay: MIC, clinical strain; type: cell-based, Staphylococcus aureus
Description: as §1

S. aureus-25 = assay: MIC, clinical strain; type: cell-based, Staphylococcus aureus
Description: as §1

S. aureus-26 = assay: MIC, clinical strain; type: cell-based, Staphylococcus aureus
Description: as §1

S. aureus-28 = assay: MIC, clinical strain; type: cell-based, Staphylococcus aureus
Description: as §1

S. aureus-29 = assay: MIC, clinical strain; type: cell-based, Staphylococcus aureus
Description: as §1

S. aureus-30 = assay: MIC, clinical strain; type: cell-based, Staphylococcus aureus
Description: as §1

S. aureus-31 = assay: MIC, clinical strain; type: cell-based, Staphylococcus aureus
Description: as §1

S. aureus-32 = assay: MIC, clinical strain; type: cell-based, Staphylococcus aureus
Description: as §1

S. aureus-35 = assay: MIC, clinical strain; type: cell-based, Staphylococcus aureus
Description: as §1

S. aureus-36 = assay: MIC, clinical strain; type: cell-based, Staphylococcus aureus
Description: as §1

S. aureus-38 = assay: MIC, clinical strain; type: cell-based, Staphylococcus aureus
Description: as §1

S. aureus-39 = assay: MIC, clinical strain; type: cell-based, Staphylococcus aureus
Description: as §1

S. aureus-41 = assay: MIC, clinical strain; type: cell-based, Staphylococcus aureus
Description: as §1

S. aureus-42 = assay: MIC, clinical strain; type: cell-based, Staphylococcus aureus
Description: as §1

S. aureus-43 = assay: MIC, clinical strain; type: cell-based, Staphylococcus aureus
Description: as §1

S. aureus-44 = assay: MIC, clinical strain; type: cell-based, Staphylococcus aureus
Description: as §1

S. aureus-47 = assay: MIC, clinical strain; type: cell-based, Staphylococcus aureus
Description: as §1

S. aureus-48 = assay: MIC, clinical strain; type: cell-based, Staphylococcus aureus
Description: as §1

S. aureus-4 = assay: MIC, clinical strain; type: cell-based, Staphylococcus aureus
Description: as §1

S. aureus-5 = assay: MIC, clinical strain; type: cell-based, Staphylococcus aureus
Description: as §1

S. aureus-7 = assay: MIC, clinical strain; type: cell-based, Staphylococcus aureus
Description: as §1

S. aureus-8 = assay: MIC, clinical strain; type: cell-based, Staphylococcus aureus
Description: as §1

C=C[C@]1(C)C[C@@H](OC(=O)CSC(C)(C)CNC(=O)[C@H](N)C(C)C)[C@]2(C)[C@H](C)CC[C@]3(CCC(=O)[C@H]32)[C@@H](C)[C@@H]1O [Valnemulin]
MIC (MRSA-337371): 0.031 µg/mL (≈ 0.0549 µM) | MIC (MRSE): 0.031 µg/mL (≈ 0.0549 µM) | MIC (S. aureus-25923): 0.031 µg/mL (≈ 0.0549 µM) | MIC (S. aureus-29213): 0.063 µg/mL (≈ 0.112 µM) | MIC (E. coli-25922): 16 µg/mL (≈ 28.3 µM) | MIC (S. agalactiae-1): 0.031 µg/mL (≈ 0.0549 µM) | MIC (S. dysgalactiae-1): 0.031 µg/mL (≈ 0.0549 µM) | MIC (S. dysgalactiae-2): 0.031 µg/mL (≈ 0.0549 µM) | MIC (S. dysgalactiae-3): 0.031 µg/mL (≈ 0.0549 µM) | in vitro minimum inhibitory concentration (S. aureus-12): 0.031 | in vitro minimum inhibitory concentration (S. aureus-13): 0.063 | in vitro minimum inhibitory concentration (S. aureus-14): 0.125 | in vitro minimum inhibitory concentration (S. aureus-18): 0.063 | in vitro minimum inhibitory concentration (S. aureus-19): 0.063 | in vitro minimum inhibitory concentration (S. aureus-1): 0.25 µg/mL | in vitro minimum inhibitory concentration (S. aureus-20): 0.125 | in vitro minimum inhibitory concentration (S. aureus-21): 0.125 | in vitro minimum inhibitory concentration (S. aureus-22): 0.25 µg/mL | in vitro minimum inhibitory concentration (S. aureus-23): 0.063 | in vitro minimum inhibitory concentration (S. aureus-24): 0.063 | in vitro minimum inhibitory concentration (S. aureus-25): 0.063 | in vitro minimum inhibitory concentration (S. aureus-26): 0.063 | in vitro minimum inhibitory concentration (S. aureus-28): 0.063 | in vitro minimum inhibitory concentration (S. aureus-29): 0.063 | in vitro minimum inhibitory concentration (S. aureus-30): 0.063 | in vitro minimum inhibitory concentration (S. aureus-31): 0.063 | in vitro minimum inhibitory concentration (S. aureus-32): 0.063 | in vitro minimum inhibitory concentration (S. aureus-35): 0.063 | in vitro minimum inhibitory concentration (S. aureus-36): 0.063 | in vitro minimum inhibitory concentration (S. aureus-38): 0.063 | in vitro minimum inhibitory concentration (S. aureus-39): 0.125 | in vitro minimum inhibitory concentration (S. aureus-41): 0.063 | in vitro minimum inhibitory concentration (S. aureus-42): 0.063 | in vitro minimum inhibitory concentration (S. aureus-43): 0.063 | in vitro minimum inhibitory concentration (S. aureus-44): 0.063 | in vitro minimum inhibitory concentration (S. aureus-47): 0.063 | in vitro minimum inhibitory concentration (S. aureus-48): 0.125 | in vitro minimum inhibitory concentration (S. aureus-4): 0.125 | in vitro minimum inhibitory concentration (S. aureus-5): 0.063 | in vitro minimum inhibitory concentration (S. aureus-7): 0.063 | in vitro minimum inhibitory concentration (S. aureus-8): 0.063

Reference: patent US20250129018A1, “PLEUROMUTILIN DERIVATIVES CONTAINING CYCLOALKYL GROUP AND PREPARATION METHODS AND APPLICATIONS THEREOF” (priority 2023, published 2025)
